1 compound from patent US7160900B2, “Tetrahydropyridino or piperidino heterocyclic derivatives” (Taisho Pharmaceutical Co., Ltd., priority 2000, dated 2007) can be followed below.

Structures are written as SMILES.

The melting point is the temperature, or range, at which the solid turns liquid. The compound `Cc1cc(N2CC=C(CC(N)=O)CC2)c2cccc(-c3ccc(Cl)cc3Cl)c2n1` [compound 1-05, 2-{1-[8-(2,4-dichlorophenyl)-2-methylquinolin-4-yl]-1,2,3,6-tetrahydropyridin-4-yl}-acetamide] returned a melting point of 160 to 162 °C.
